Measured values reported in patent US11492347B2 (ENYO PHARMA, priority 2018, dated 2022).

Test system: H1N1 (influenza A/New Caledonia/20/99)
Test: microbe, parasite or virus in culture
Type: cell-based
Details: H1N1, A549, 48 h

| Compound | IC50 [nM] |
| --- | --- |
| Cn1cc(C(=O)Nc2sc3c(c2C(=O)O)CC(C)(C)CC3)cn1 [#202, 5,5-Dimethyl-2-[(1-methylpyrazole-4-carbonyl)amino]-6,7-dihydro-4H-benzothiophene-3-carboxylic acid] | 900 |
| CC1(C)CCc2c(sc(NC(=O)c3cnc(N4CCOCC4)cn3)c2C(=O)O)C1 [#230, 6,6-Dimethyl-2-[(5-morpholinopyrazine-2-carbonyl)amino]-5,7-dihydro-4H-benzothiophene-3-carboxylic acid] | 420 |
| CC1(C)CCc2sc(NC(=O)c3ccc(N4CCOCC4)cc3)c(C(=O)O)c21 [Compound #41, 4,4-Dimethyl-2-[(4-morpholinobenzoyl)amino]-5,6-dihydrocyclopenta[b]thiophene-3-carboxylicacid] | 105 |
| CC1(C)CCc2sc(NC(=O)c3ccc(Br)cc3)c(C(=O)O)c21 [Compound #158, 2-[(4-Bromobenzoyl)amino]-4,4-dimethyl-5,6-dihydro cyclopenta[b]thiophene-3-carboxylic acid] | 320 |
| CC1(C)CCc2sc(NC(=O)c3cc[nH]n3)c(C(=O)O)c2C1 [#225, 5,5-Dimethyl-2-(1H-pyrazole-3-carbonylamino)-6,7-dihydro-4H-benzothiophene-3-carboxylic acid] | 110 |
| CC1(C)CCc2sc(NC(=O)c3ccnc(N4CCOCC4)c3)c(C(=O)O)c2C1 [#221, 5,5-Dimethyl-2-[(2-morpholinopyridine-4-carbonyl)amino]-6,7-dihydro-4H-benzothiophene-3-carboxylic acid] | 380 |
| CC1CC(C)(C)c2sc(NC(=O)c3ccccc3)c(C(=O)O)c21 (stereo not shown) [Compound #43, 2-Benzamido-4,6,6-trimethyl-4,5-dihydrocyclopenta[b]thiophene-3-carboxylic acid] | 280 |
| CC1(C)Cc2c(sc(NC(=O)c3ccc(C4CCOCC4)cc3)c2C(=O)O)C(C)(C)C1 [#174, 5,5,7,7-Tetramethyl-2-[(4-tetrahydropyran-4-ylbenzoyl)amino]-4,6-dihydrobenzothiophene-3-carboxylic acid] | 39 |
| CC1(C)Cc2c(sc(NC(=O)c3ccc(N4CCC5(CC4)COC5)cc3)c2C(=O)O)C(C)(C)C1 [Compound #144, 5,5,7,7-Tetramethyl-2-[[4-(2-oxa-7-azaspiro[3.5]nonan-7-yl)benzoyl]amino]-4,6-dihydrobenzothiophene-3-carboxylic acid] | 35 |
| CC1CC(C)(C)Cc2sc(NC(=O)c3ccccc3)c(C(=O)O)c21 (stereo not shown) [Compound #44, 2-Benzamido-4,6,6-trimethyl-5,7-dihydro-4H-benzothiophene-3-carboxylic acid] | 90 |
| COc1ccc(C(=O)Nc2sc3c(c2C(=O)O)C(C)(C)CC3)cc1OC [Compound #38, 2-[(3,4-Dimethoxybenzoyl)amino]-4,4-dimethyl-5,6-dihydrocyclopenta[b]thiophene-3-carboxylic acid] | 339 |
| CC1(C)CCc2sc(NC(=O)c3ccc(OC(F)F)cc3)c(C(=O)O)c21 [Compound #39, 2-[[4-(Difluoromethoxy)benzoyl]amino]-4,4-dimethyl-5,6-dihydrocyclopenta[b]thiophene-3-carboxylic acid] | 277 |
| COc1ccc(C(=O)Nc2sc3c(c2C(=O)O)CCC(C)(C)C3)nc1OC [Compound #94, 2-[(5,6-Dimethoxypyridine-2-carbonyl)amino]-6,6-dimethyl-5,7-dihydro-4H-benzothiophene-3-carboxylic acid] | 660 |
